The target of assay [1] is T1, purified recombinant human Aggrecanase-1 (rAgg1) (Homo sapiens, UniProt O75173).
T1 sequence (O75173 213-837): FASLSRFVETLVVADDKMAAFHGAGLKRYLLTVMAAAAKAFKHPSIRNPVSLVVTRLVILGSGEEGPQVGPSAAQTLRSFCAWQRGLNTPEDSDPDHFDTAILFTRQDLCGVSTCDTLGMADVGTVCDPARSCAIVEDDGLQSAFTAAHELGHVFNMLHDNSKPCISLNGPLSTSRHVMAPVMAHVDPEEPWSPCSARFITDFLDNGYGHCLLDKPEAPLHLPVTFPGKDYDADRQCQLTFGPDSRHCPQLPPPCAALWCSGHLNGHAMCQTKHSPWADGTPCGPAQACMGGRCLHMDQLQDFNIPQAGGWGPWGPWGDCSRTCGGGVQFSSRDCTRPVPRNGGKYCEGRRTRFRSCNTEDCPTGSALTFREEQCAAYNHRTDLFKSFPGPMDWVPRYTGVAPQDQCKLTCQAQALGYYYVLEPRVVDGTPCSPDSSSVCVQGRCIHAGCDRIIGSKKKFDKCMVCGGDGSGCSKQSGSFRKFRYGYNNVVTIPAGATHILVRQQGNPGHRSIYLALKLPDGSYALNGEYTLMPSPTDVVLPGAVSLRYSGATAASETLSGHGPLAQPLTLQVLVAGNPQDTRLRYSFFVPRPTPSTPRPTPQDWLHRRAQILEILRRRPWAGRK
The experiment in a line: In vitro fluorescence screen for Aggrecanase-1 inhibitors. It is filed as biochemical. Conditions: Table 1; for IC50: read-out: Agg1 IC50; for Ki: enzyme not given, column follows Agg1 IC50, read-out: Ki.

For assay [2], the target named is T2, purified recombinant human Aggrecanase-2 (Ag2t-Phe628-Strep) (Homo sapiens, UniProt Q9UNA0).
T2 construct: the form used is denoted as Ag2t-Phe628-Strep (MW=41,737)
T2 sequence (Q9UNA0 262-628): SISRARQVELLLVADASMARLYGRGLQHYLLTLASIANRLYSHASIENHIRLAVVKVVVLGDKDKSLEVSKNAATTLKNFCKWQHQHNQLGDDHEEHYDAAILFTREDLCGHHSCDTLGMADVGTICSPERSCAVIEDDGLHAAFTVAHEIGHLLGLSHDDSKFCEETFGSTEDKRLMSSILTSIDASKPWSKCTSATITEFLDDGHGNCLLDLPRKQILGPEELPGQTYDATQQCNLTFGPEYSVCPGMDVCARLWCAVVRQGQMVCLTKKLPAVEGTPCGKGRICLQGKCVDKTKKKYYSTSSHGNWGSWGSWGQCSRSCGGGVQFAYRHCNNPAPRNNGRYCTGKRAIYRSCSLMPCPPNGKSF
As to the kind of experiment: In vitro fluorescence screen for Aggrecanase-2 inhibitors. It counts as biochemical. Conditions: Table 1; read-out: Agg 2 IC50.

In assay [3] the target is T3, recombinant human catalytic domain of MMP-13 (Homo sapiens, UniProt P45452).
T3 construct: catalytic domain of MMP-13 (165 amino acids, residues 104-268, 19 kDa)
As to the kind of experiment: In vitro fluorescence assay of MMP-13 activity. As to conditions: Table 1; unit inferred. It counts as biochemical.

Assay [4] addresses T4, recombinant human catalytic domain of MMP-14 (Homo sapiens, UniProt P50281).
T4 construct: 177 amino acids corresponding to Tyr89-Gly265 of mature human enzyme; purchased Chemicon International, Inc. CC1041
The experiment in a line: In vitro fluorescence assay of MMP-14 activity. It is filed as biochemical. Conditions: Table 1; for MMP-14: unit not given; for IC50: unit inferred.

In another assay the target is T5, MMP-1 (Homo sapiens, UniProt P03956).
T5 sequence (P03956 100-469): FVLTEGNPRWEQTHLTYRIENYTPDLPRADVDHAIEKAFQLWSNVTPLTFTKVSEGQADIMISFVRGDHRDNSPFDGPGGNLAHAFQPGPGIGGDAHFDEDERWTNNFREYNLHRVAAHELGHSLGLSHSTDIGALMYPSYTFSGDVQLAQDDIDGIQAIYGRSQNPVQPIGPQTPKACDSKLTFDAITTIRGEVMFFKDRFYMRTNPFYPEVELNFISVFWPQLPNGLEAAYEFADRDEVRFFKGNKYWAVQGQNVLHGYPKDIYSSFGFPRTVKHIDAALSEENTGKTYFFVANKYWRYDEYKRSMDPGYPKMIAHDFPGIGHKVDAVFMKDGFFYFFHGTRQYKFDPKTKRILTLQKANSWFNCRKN
As to the kind of experiment: MMP-1 of Table 1. It counts as biochemical. Conditions: for MMP-1: unit not given; for IC50: unit inferred.

The next assay has as its target T6, recombinant human MMP-2 (Homo sapiens, UniProt P08253).
T6 sequence (P08253 110-660): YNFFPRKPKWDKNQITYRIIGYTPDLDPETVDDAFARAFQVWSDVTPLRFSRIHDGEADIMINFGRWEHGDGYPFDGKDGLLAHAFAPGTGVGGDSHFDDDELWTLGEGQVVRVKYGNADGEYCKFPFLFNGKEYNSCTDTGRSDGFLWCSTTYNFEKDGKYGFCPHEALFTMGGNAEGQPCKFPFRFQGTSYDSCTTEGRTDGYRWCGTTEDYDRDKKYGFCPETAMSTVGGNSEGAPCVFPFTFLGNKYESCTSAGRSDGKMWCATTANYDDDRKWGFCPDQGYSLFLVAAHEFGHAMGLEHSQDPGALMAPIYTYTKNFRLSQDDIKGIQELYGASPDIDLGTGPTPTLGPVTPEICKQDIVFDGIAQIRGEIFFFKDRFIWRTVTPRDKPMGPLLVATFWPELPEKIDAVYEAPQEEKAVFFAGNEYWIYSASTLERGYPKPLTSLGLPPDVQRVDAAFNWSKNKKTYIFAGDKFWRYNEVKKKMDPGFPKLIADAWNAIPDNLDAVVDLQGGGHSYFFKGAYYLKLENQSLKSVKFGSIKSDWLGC
As to the kind of experiment: In vitro fluorescence assay of MMP-2 activity.

Assay [5] relates to bovine articular cartilage treated with Interleukin 1 alpha (IL-1α). As to the kind of experiment: Bovine articular cartilage explant cultures: inhibition of degradation of proteoglycan. It counts as cell-based. Conditions: inhibitory effect expressed as percentage, concentration not printed. The source says: This in vitro procedure was used to evaluate the effect and relative potencies of small molecule compounds to inhibit the degradation of proteoglycan in articular cartilage treated with Interleukin 1 alpha (IL-1α). Treatment of articular cartilage with IL 1α induces expression of a cascade of enzymes that initiates cartilage matrix degradation. This assay was utilized to select small molecule compounds that inhibit the enzyme activity and protects cartilage matrix degradation.
Articular cartilage: bovine metacarpal joints were disinfected with 10% Wescodyne followed by 70% ethanol. 6 mm articular cartilage discs were prepared and rinsed once in PBS and medium, respectively. The discs were cultured in a stirring flask with serum-free medium for 5 days for equilibrium with one medium change. Small molecule compounds: stock solutions of test small molecule compounds (usually at 5 mg/ml) were prepared in DMSO. Working solutions were diluted with DMSO and generally ranged from 0.1 μg/ml to 10 ug/ml. The DMSO stocks were stored at […]. Articular cartilage explant culture medium: DMEM, 2 mM glutamax, 100 U/ml of antibiotic and antimycotic, 50 μg/ml ascorbate and 10 mM Hepes (pH-7.0). Proteoglycan content-Dimethyl methylene blue (DMMB) solution: […] DMMB, 10 ml 100% ethanol, 29.5 ml of 1M NaOH, 3.5 ml of 98% formic acid and water to 1 L. Chondroitin sulphate sodium salt: 1.56-200 ug/ml serial dilutions.
For the explant culture, cartilage discs were cultured in serum-free medium for 48 h or more. Discs were weighed and transferred to a 96-well plate, 1 disc per-well. 0.2 ml of medium containing 5 ng/ml of IL-1 and different concentrations of compounds were added to each well, with 3 wells allocated for each treatment. The medium was collected at days 1, 2, & 3 and replaced accordingly.
For the DMMB assay, conditioned medium (CM) samples were diluted with medium. 10 ul of each standard or diluted sample was added in duplicate into a 96-well-plate and 200 μl of DMMB solution was added into each well. Absorbance at 520 nm was measured for each well. Proteoglycan contents in CM were calculated daily.
The proteoglycan contents are expressed as ug per mg of cartilage. The inhibitory effect of the compounds is expressed as percentage. (See, Tortorella, M. D. et al., Science 1999, 284, 1664-1666).

Setting [6] is: Table 1, first of two columns headed bovine.
Setting [7] is: Table 1, second of two columns headed bovine.

Each structure is given as a SMILES string. Bounds are passed on as bounds.

This is an account of results in patent US7998965B2, “Glutamate aggrecanase inhibitors” (Wyeth LLC, priority 2005, dated 2011).

Usually IC50 stands for the concentration that inhibits the measured activity by half. Consider `CC(C)(Cc1ccc(F)cc1)NC(=O)C(CCC(=O)O)NC(=O)c1ccc(-c2ccccc2)cc1` (racemic) [Example 8GGGG, N^2-(biphenyl-4-ylcarbonyl)-N^1-[2-(4-fluorophenyl)-1,1-dimethylethyl]-α-glutamine], for which the IC50 in assay [1] was 30 nM; in assay [2] it was 160 nM; in assay [3], > 50000 nM; at recombinant human MMP-2 it was 18600 nM. The MMP-14 entry in assay [4] is given as “no inh”. Further, the MMP-1 entry on MMP-1 is recorded as “no inh”.

Consider `O=C(O)CC[C@H](NC(=O)c1ccc(-c2ccccc2)cc1)C(=O)NC1Cc2ccccc2C1` [Example 6A, N^2-(1,1′-biphenyl-4-ylcarbonyl)-N^1-2,3-dihydro-1H-inden-2-yl-L-α-glutamine], for which the IC50 is 150 nM in assay [1]; 740 nM in assay [2]; > 50000 nM in assay [3]; > 200000 nM in assay [4]; > 50000 nM against MMP-1; 29800 nM at recombinant human MMP-2.

On to `O=C(O)CC[C@H](NC(=O)c1ccc(-c2ccccc2)cc1)C(=O)NCc1ccc(Cl)c(Cl)c1` [Example 8BB, N^2-(1,1′-biphenyl-4-ylcarbonyl)-N^1-(3,4-dichlorobenzyl)-L-α-glutamine], for which the IC50 was 74 nM in assay [1]; 650 nM in assay [2]; 19000 nM in assay [3]; ~25000 nM in assay [4]; 2300 nM at recombinant human MMP-2. In addition, the MMP-1 result on MMP-1 is “no inh”.

Usually Ki stands for a dissociation constant, usually derived from enzyme kinetics or from competition with a known ligand. Take `CCC(C)NC(=O)[C@H](CCC(=O)O)NC(=O)c1ccc(-c2ccccc2)cc1` (stereo partly drawn) [Example 8BBB, N^2-(1,1′-biphenyl-4-ylcarbonyl)-N^1-(sec-butyl)-L-α-glutamine]: the Ki in assay [1] is 130 nM. In addition, the IC50 is 32 nM in assay [1], 700 nM in assay [2], > 50000 nM in assay [3] and > 200000 nM on MMP-1. Besides, the MMP-14 entry in assay [4] is “no inh”. Besides, the bovine in assay [5] (setting [6]) came to 35%; in assay [5] (setting [7]), 0%.

`O=C(O)CC[C@H](NC(=O)c1ccc(-c2ccccc2)cc1)C(=O)NCc1ccc(I)cc1` [Example 8LL, N^2-(1,1′-biphenyl-4-ylcarbonyl)-N^1-(4-iodobenzyl)-L-α-glutamine]: the IC50 in assay [1] turned out to be 55 nM; in assay [2], 990 nM; in assay [3], 24000 nM; at recombinant human MMP-2 it was 50000 nM. Moreover, the bovine in assay [5] (setting [6]) is reported as 40%; in assay [5] (setting [7]) it was 0%.

In the case of `CC(C)(Cc1ccc(Cl)cc1)NC(=O)[C@H](CCC(=O)O)NC(=O)c1ccc(-c2ccccc2)cc1` [Example 8NN, N^2-(biphenyl-4-ylcarbonyl)-N^1-[2-(4-chlorophenyl)-1,1-dimethylethyl]-L-α-glutamine], the Ki in assay [1] is 14 nM. Also, the IC50 in assay [1] is < 30 nM; in assay [2], 133 nM; in assay [3] it was ~50000 nM; against MMP-1, > 200000 nM; on recombinant human MMP-2, 9000 nM. Also, the MMP-14 result in assay [4] is reported as “no inh”.

As to `CC(C)(Cc1ccccc1)NC(=O)[C@H](CCC(=O)O)NC(=O)c1ccc(-c2ccccc2)cc1` [Example 8PP, N^2-(biphenyl-4-ylcarbonyl)-N^1-(1,1-dimethyl-2-phenylethyl)-L-α-glutamine], the Ki in assay [1] came out at 10 nM. For the same molecule, the IC50 is < 30 nM in assay [1]; 85 nM in assay [2]; ~50000 nM in assay [3]; > 66600 nM in assay [4]; > 200000 nM on MMP-1; 6000 nM at recombinant human MMP-2.

Turning to `CC(C)(C)NC(=O)[C@H](CCC(=O)O)NC(=O)c1ccc(-c2ccccc2)cc1` [Example 8SSS, N^2-(biphenyl-4-ylcarbonyl)-N^1-(tert-butyl)-L-α-glutamine], the IC50 was 64 nM in assay [1], 470 nM in assay [2], > 50000 nM in assay [3] and 10300 nM on recombinant human MMP-2.

Regarding `O=C(O)CC[C@H](NC(=O)c1ccc(-c2ccccc2)cc1)C(=O)NCc1cccc(-c2ccccn2)c1` [Example 10Q, N^2-(biphenyl-4-ylcarbonyl)-N^1-(3-pyridin-2-ylbenzyl)-L-α-glutamine], the IC50 in assay [1] is 98 nM; in assay [2], 3000 nM; in assay [3], ~50000 nM; in assay [4], > 50000 nM. In addition, the MMP-1 entry on MMP-1 is given as “no inh”.

With `COc1cccc(CCNC(=O)[C@H](CCC(=O)NO)NC(=O)c2ccc(-c3ccccc3)cc2)c1` [Example 33C, N^2-(1,1′-biphenyl-4-ylcarbonyl)-N^5-hydroxy-N^1-[2-(3-methoxyphenyl)ethyl]-L-α-glutamamide], the IC50 in assay [1] is < 10 nM; in assay [2] it was 25 nM; in assay [3], 29 nM; in assay [4], 110 nM; at MMP-1, 1500 nM.
